The source of these data is PMC10998830 (Communications Chemistry, 2024).

The target in assay [1] is T1, AbATPPRT (Acinetobacter baumannii, UniProt A0A7U3XWM9).
T1 construct: gene hisG; hetero-octameric holoenzyme (two HisGS dimers flanking a HisZ tetramer) reconstituted in vitro from separately purified recombinant AbHisGS (E. coli BL21(DE3)) and AbHisZ; unlabelled (natural isotope abundance)
T1 sequence (A0A7U3XWM9 1-227): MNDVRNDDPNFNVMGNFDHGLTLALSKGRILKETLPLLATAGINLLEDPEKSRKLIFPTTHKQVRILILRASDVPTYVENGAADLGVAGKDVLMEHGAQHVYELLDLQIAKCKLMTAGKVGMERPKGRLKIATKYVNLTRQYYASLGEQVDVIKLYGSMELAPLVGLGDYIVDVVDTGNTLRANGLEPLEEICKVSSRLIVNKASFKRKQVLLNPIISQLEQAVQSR
T1 sequence (B2HWK9 1-388 partner): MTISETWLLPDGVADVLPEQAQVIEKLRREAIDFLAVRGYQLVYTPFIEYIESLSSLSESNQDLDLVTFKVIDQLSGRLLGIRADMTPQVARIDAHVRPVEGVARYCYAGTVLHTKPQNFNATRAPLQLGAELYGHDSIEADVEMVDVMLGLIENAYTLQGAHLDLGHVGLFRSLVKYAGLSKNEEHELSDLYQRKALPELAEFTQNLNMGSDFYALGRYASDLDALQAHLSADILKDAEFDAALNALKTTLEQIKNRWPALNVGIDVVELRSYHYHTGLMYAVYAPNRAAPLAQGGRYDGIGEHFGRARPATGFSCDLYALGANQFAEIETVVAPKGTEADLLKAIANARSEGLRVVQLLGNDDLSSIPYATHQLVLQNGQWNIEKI
The assay is described as follows: differential scanning fluorimetry, SYPRO Orange. It counts as binding. The following applies: 250 μM PRATP, 8 μM enzyme, pH 8.5, 15 mM MgCl2, 100 mM KCl; unlabelled enzyme. A general note: In DSF a fluorescence change marks the thermal transition of the protein.

In assay [2] the target is T1, AbATPPRT. The assay is described as follows: dose-response of initial rate, PRATP formation. It counts as biochemical.

The structures appear in SMILES notation.

A word on the IC50: it is the concentration that gives 50% inhibition. The low end stands for higher potency, the high end for lower potency.

Regarding `N=c1c2ncn([C@@H]3O[C@H](COP(=O)(O)OP(=O)(O)OP(=O)(O)O)[C@@H](O)[C@H]3O)c2ncn1[C@@H]1O[C@H](COP(=O)(O)O)[C@@H](O)[C@H]1O` [PRATP], the Tm increase entry on AbATPPRT [1] is “the presence of PRATP led only to marginal and mass-independent increases in Tm”.

In turn, `N[C@@H](Cc1c[nH]cn1)C(=O)O` [histidine] yielded an IC50 at AbATPPRT [2] of 93 ± 6 µM.
